Results on six compounds are retold here after ChEMBL document CHEMBL1147124, “Antigiardial activity of triterpenoids from root bark of Hippocratea excelsa” (J Nat Prod, 2007).

SMILES strings stand for the structures. pIC50: −log10 of the molar value.

The subject of this assay is Giardia intestinalis. As to the kind of experiment: Antiprotozoal activity against Giardia intestinalis IMSS:0696:1 trophozoites after 48 hrs. It counts as functional, organism-based. To be noted: Giardia duodenalis.
As usually defined, the pIC50 is −log10 of the IC50, conventionally taken in molar units. Take `COC(=O)[C@]1(C)CC[C@]2(C)CC[C@]3(C)C4=CC=C5C(=CC(=O)[C@]6(O)Oc7cc8c(cc7O[C@]56C)C(=O)C=C5[C@@]8(C)CC[C@@]6(C)[C@@H]7C[C@](C)(C(=O)OC)CC[C@]7(C)CC[C@]56C)[C@]4(C)CC[C@@]3(C)[C@@H]2C1` [XUXARINE EBETA]: the pIC50 was 4.95. On to `CC1=C(O)C(=O)C=C2C1=CC=C1[C@@]2(C)CC[C@@]2(C)[C@@H]3C[C@@H](C)C(=O)C[C@]3(C)CC[C@]12C` [TINGENONE], for which the pIC50 was 6.13. `COC(=O)/C=C1\C(C(C)=O)=CC=C2[C@]3(C)CC[C@@]4(C)CC[C@@](C)(C(=O)OC)CC4[C@@]3(C)CC[C@]21C` (stereo partly specified) [DZUNUNCANONE] had a pIC50 of 4.65. In the case of `COC(=O)[C@]1(C)CC[C@]2(C)CC[C@]3(C)C4=CC=C5C(=CC(=O)C(O)=C5C)[C@]4(C)CC[C@@]3(C)[C@@H]2C1` [PRISTIMERIN] it was 6.96; in that of `C[C@H]1C(=O)CCC2[C@]3(C)CC[C@@]4(C)C5CC(C)(C)[C@H](O)C[C@]5(C)CC[C@]4(C)C3CC[C@@]21C` (stereo partly specified), 4.70. As for `CC1(C)C[C@H]2C3=CC[C@@H]4[C@@]5(C)CCC(=O)C(C)(C)[C@@H]5CC[C@@]4(C)[C@]3(C)CC[C@@]2(C)C[C@@H]1O`, the pIC50 is 4.56.
